# Patent publication US9200071B2, “Methods of treating cancer using Notch1 and Notch3 antagonists” (Genentech, Inc., priority 2009, dated 2015)
# B1: A13: anti-Notch3 agonist antibody described in US 2008/0118520 A1 as 256A-13 (antibody, V domains shown)
# VH: SQVQLQQSGAELAKPGTSVKMACKASGYTFTTHWMNWVKQRPGQGLEWIGTINPSNDFTDCNQKFKDKAILTADKSSSTAYMQLSSLTSEDSAIYYCASGLTARAWFAYWGQGTLVTVSAA
# VL: RATISCRASQSVTTSNYSYMHWFQQKPGQPPKLLIKYASNLDSGVPARFSGSGSGTDFTLNIHPVEEEDTATFYCQHSWEIPYTFGGGTNLEIKRADAAPTV
# Columns and labels:
# Format in all cases: cell-based, human
# P-12 Ichikawa cell line [1] = experiment: Cell cycle status by propidium iodide FACS (growth sensitivity); conditions: eight days; DAPT 5 μM, anti-NRR1 5 μg/ml; FIG. 3A-3D
# Procedure: (§1) FIGS. 3-5 presents the classification of three representative human T-ALL cell lines. Those cell lines include the P-12 Ichikawa cell line, the HPB-ALL cell line, and the TALL-1 cell line. The cells were grown for eight days in control conditions (DMSO alone (the vehicle for DAPT) or anti-gD (an isotype control antibody)); in the presence of the gamma-secretase inhibitor, DAPT (5 μM); or in the presence of anti-NRR1 (5 μg/ml). The cells were fixed, stained with propidium iodide and prepared for FACS to analyze the cell cycle status, according to standard procedures. […] HPB-ALL cells are sensitive to both DAPT and anti-NRR1 (FIG. 4A-4D), with DAPT- and anti-NRR1-treated cells showing about 78% and 76% of cells in G0/G1, respectively, compared to about 33-34% of the control cells. TALL-1 cells are sensitive to DAPT but resistant to anti-NRR1 (FIG. 5A-5D), with about 87% of DAPT-treated cells in G0/G1, compared to about 55% of anti-NRR1-treated cells and about 53-54% of control cells. It is noted that Notch1 is not mutated in TALL-1 cells. […] (Data not shown and FIG. 10.)
# CCRF-CEM cells = experiment: as above; conditions: eight days; DAPT 5 μM, anti-NRR1 5 μg/ml, anti-NRR3 10 μg/ml; FIG. 10A-10F
# Procedure: as §1
# (§2) As described above, two of the three classes of T-ALL, represented by HPB-ALL and TALL-1, are both sensitive to GSI but differ in that the former is sensitive to anti-NRR1, whereas the latter is not. […] To address this question, CCRF-CEM cells, HPB-ALL cells, and TALL-1 cells were treated as described for FIGS. 3-5, except that a Notch3-specific antagonist was also included at 10 μg/ml in a subset of the treatments to test whether growth depended on Notch3 signaling. The Notch3-specific antagonist used in these studies was mouse anti-human Notch3 monoclonal antibody 256A-4, the isolation and characterization of which are discussed in U.S. Patent Application Publication No. US 2008/0226621 A1. For convenience, 256A-4 is referred to herein as “anti-NRR3,” and is also referred to as “α-N3” in the figures.
# HPB-ALL cell line [2] = experiment: as above; conditions: eight days, DAPT 5 μM, anti-NRR1 5 μg/ml
# Procedure: as §1, §2
# TALL-1 cell line [3] = experiment: as above; conditions: eight days, DAPT 5 μM, anti-NRR1 5 μg/ml; for percentage of cells in G0/G1: control cells about 53-54%
# Procedure: as §1, §2
# HPB-ALL cell line [4] = experiment: Cell diameter measurement (Vi-Cell cell counter); conditions: approximately one week; DAPT 5 μM, anti-NRR1 5 μg/ml; FIG. 6
# Procedure: (§3) The P-12 Ichikawa cell line, the HPB-ALL cell line, and the TALL-1 cell line were grown for approximately one week in control conditions (DMSO alone (the vehicle for DAPT) or anti-gD (an isotype control antibody)); in the presence of the gamma-secretase inhibitor, DAPT (5 μM); or in the presence of anti-NRR1 (5 μg/ml). Cell diameter was measured using a cell counter (Vi-Cell, Beckman Coulter). Consistent with the growth inhibition studies, the P-12 Ichikawa line is resistant to both DAPT and anti-NRR1, as indicated by relatively consistent cell diameter among treated and control cells.
# P-12 Ichikawa cell line [5] = experiment: Cell diameter measurement (Vi-Cell cell counter); conditions: approximately one week; DAPT 5 μM, anti-NRR1 5 μg/ml; FIG. 6
# Procedure: as §3
# TALL-1 cell line [6] = experiment: Cell diameter measurement (Vi-Cell cell counter); conditions: approximately one week; DAPT 5 μM, anti-NRR1 5 μg/ml; FIG. 6
# Procedure: as §3
# HPB-ALL cell line [7] = experiment: Apoptosis by Annexin V / 7-AAD FACS; conditions: approximately one week; DAPT 5 μM, anti-NRR1 5 μg/ml; FIG. 7
# Procedure: (§4) The P-12 Ichikawa cell line, the HPB-ALL cell line, and the TALL-1 cell line were treated as described above for FIG. 6. The cells were analyzed by FACS, with staining for 7-AAD (cell death marker) on the x-axis of FIG. 7, and staining for Annexin V (marker for apoptosis) on the y-axis of FIG. 7. […] In contrast, P-12 Ichikawa cells are resistant to both treatments, whereas TALL-1 cells are sensitive to DAPT but not to anti-NRR1.
# P-12 Ichikawa cell line [8] = experiment: Apoptosis by Annexin V / 7-AAD FACS; conditions: approximately one week; DAPT 5 μM, anti-NRR1 5 μg/ml; FIG. 7
# Procedure: as §4
# TALL-1 cell line [9] = experiment: Apoptosis by Annexin V / 7-AAD FACS; conditions: approximately one week; DAPT 5 μM, anti-NRR1 5 μg/ml; FIG. 7
# Procedure: as §4
# HPB-ALL cell line [10] = experiment: Cell proliferation assay by Ki-67 staining FACS; conditions: approximately one week; DAPT 5 μM, anti-NRR1 5 μg/ml; FIG. 8 left panel
# Procedure: (§5) The P-12 Ichikawa cell line, the HPB-ALL cell line, and the TALL-1 cell line were treated as described above for FIG. 6. The cells were analyzed by FACS using Ki-67 staining to mark proliferation (left panel). A shift in the FACS peak to the left indicates lower staining for Ki-67 and decreased proliferation, and conversely, a shift in the FACS peak to the right indicates higher staining for Ki-67 and increased proliferation. Based on this proliferation assay, HPB-ALL was sensitive to both DAPT and anti-NRR1, TALL-1 was sensitive to DAPT but not anti-NRR1, and P-12 Ichikawa cells were resistant to both. […] Low cell counts (i.e., low numbers of Annexin V/7-AAD double negative (non-apoptotic) cells) indicate increased apoptosis, which in turn correlate with decreased proliferation in the left hand panel.
# P-12 Ichikawa cell line [11] = experiment: Cell proliferation assay by Ki-67 staining FACS; conditions: approximately one week; DAPT 5 μM, anti-NRR1 5 μg/ml; FIG. 8 left panel
# Procedure: as §5
# TALL-1 cell line [12] = experiment: Cell proliferation assay by Ki-67 staining FACS; conditions: approximately one week; DAPT 5 μM, anti-NRR1 5 μg/ml; FIG. 8 left panel
# Procedure: as §5
# [13] = system: activated Notch3 in TALL-1; experiment: Immunoblot of nuclear fractions with anti-Notch3 ICD antibody; conditions: TALL-1 nuclear fractions; FIG. 13 lower panel
# Text: (§6) This new anti-Notch3 ICD antibody was then used to investigate the activation status of Notch3 in the three classes of T-ALL. […] 3T3 cells expressing Notch1 (3T3-N1) and MDA-MB-468 (MB468) cells were used as controls. Consistent with the growth inhibition studies described in the previous figures, TALL-1 expresses high levels of activated Notch3 but not activated Notch1 (compare TALL-1 lanes in lower and upper panels, respectively). Furthermore, production of activated Notch3 in TALL-1 could be blocked by DAPT but not anti-NRR1 (lower panel). Moreover, as expected, HPB-ALL cells express high levels of activated Notch1, which can be blocked by DAPT or anti-NRR1 antibody (see HPB-ALL lanes in upper panel). As to the controls, activated Notch1 is seen as a lighter, up-shifted band in the 3T3-N1 cells treated with Jagged (+jag) (upper panel).
# [14] = system: activated Notch1 in HPB-ALL cells; experiment: Immunoblot of nuclear fractions with anti-Notch1 Val1744; conditions: FIG. 13 upper panel
# Text: as §6
# [15] = system: activated Notch3 in MDA-MB-468 cells; experiment: Immunoblot of MDA-MB-468 cells treated with anti-Notch3 agonist antibody; conditions: in the absence of DAPT, FIG. 13 lower panel
# Text: as §6
# [16] = anti-NRR3 10 μg/ml, FIG. 11A-11F
molecule,measurement,setting,value
"C[C@H](NC(=O)Cc1cc(F)cc(F)c1)C(=O)N[C@H](C(=O)OC(C)(C)C)c1ccccc1 [DAPT, N—[N-(3,5-difluorophenacetyl)-L-alanyl]-S-phenylglycine t-butyl ester]",growth sensitivity (cell cycle status),P-12 Ichikawa cell line [1],resistant
same,growth sensitivity (cell cycle status),CCRF-CEM cells,resistant
same,growth sensitivity (cell cycle status),HPB-ALL cell line [2]; [16],sensitive
same,percentage of cells in G0/G1,HPB-ALL cell line [2]; [16],about 67%
same,growth sensitivity (cell cycle status),HPB-ALL cell line [2]; FIG. 4A-4D,sensitive
same,percentage of cells in G0/G1,"HPB-ALL cell line [2]; FIG. 4A-4D, control cells about 33-34%",about 78%
same,percentage of cells in G0/G1,"TALL-1 cell line [3]; anti-NRR3 10 μg/ml, FIG. 9A-9F",~83%
same,growth sensitivity (cell cycle status),TALL-1 cell line [3]; FIG. 5A-5D,sensitive
same,percentage of cells in G0/G1,TALL-1 cell line [3]; FIG. 5A-5D,about 87%
same,cell diameter (cell size) versus control,HPB-ALL cell line [4],significantly smaller size
same,cell diameter (cell size) versus control,P-12 Ichikawa cell line [5],resistant
same,cell diameter (cell size) versus control,TALL-1 cell line [6],significantly smaller size
same,apoptotic cell death (Annexin V/7-AAD double positive population),HPB-ALL cell line [7],increases apoptotic cell death
same,apoptotic cell death (Annexin V/7-AAD double positive population),P-12 Ichikawa cell line [8],resistant
same,apoptotic cell death (Annexin V/7-AAD double positive population),TALL-1 cell line [9],sensitive
same,proliferation (Ki-67 staining),HPB-ALL cell line [10],sensitive
same,proliferation (Ki-67 staining),P-12 Ichikawa cell line [11],resistant
same,proliferation (Ki-67 staining),TALL-1 cell line [12],sensitive
same,production of activated Notch3 (nuclear fraction immunoblot),[13],blocked
same,activated Notch1 levels (nuclear fraction immunoblot),[14],blocked
B1,activated Notch3 band after agonist antibody treatment,[15],faint but detectable band
